Measurements published in patent publication US20200270294A1, “IMMUNOSTIMULATORY ADJUVANTS AND USES THEREOF” (TURUN YLIOPISTO, priority 2015, published 2020).

Experiments:
[1] = system: birch-induced production of IL-4 in PBMC; assay: Birch allergen (Bet v) induced IL-4 production in PBMC cultures of birch allergic subjects; format: cell-based, human; details: for in vitro activity (PBMC model): screen of oligovalent β-(1→2) mannosides; for suppression of birch-induced production of IL-4: Bet v 50 μg/ml, 72 h
Source text: (§1) During pollen season, 14 adult birch allergic subjects with allergic rhinoconjunctivitis (12 females and two males) were enrolled in the study (mean age 42.5 years, SD 12.4 years; mean birch-specific IgE (Immunocap, Thermo Fisher Scientific Phadia, Uppsala, Sweden) 36.1 kU/1, SD 31.5 kU/1). They were selected for the study from an earlier cohort based on good birch induced IL-4 responses during pollen season. All samples were taken after informed consent. The study was approved by the local ethics committee.
Peripheral blood mononuclear cells (PBMC) were isolated by Ficoll-Paque density gradient centrifugation (Ficoll-Paque PLUS, GE Healthcare BioSciences AB, Uppsala, Sweden) from heparinized blood samples from study subjects during pollen season. The PBMC were washed twice with Hanks' balanced salt solution (HBSS) buffered with NaHCO3 (pH 7.4) and resuspended in RPMI-1640 culture medium (Invitrogen Co., Carlsbad, Calif., USA) supplemented with 5% autologous serum, 2.5 mM L-glutamine (Sigma-Aldrich Co., St. Louis, Mo.) and 100 μg/ml gentamycin sulfate (Biological Industries Ltd., Kibbutz Beit Haemek, Israel) and applied on 48-well flat-bottomed cell culture plates (Costar, Corning Inc., New York, United States) at a density of […]. Cells were co-cultured in the presence of birch allergen (50 μg/ml, Betula verrucosa, Bet v, Aquagen, ALK-Abellò A/S, Horsholm, Denmark) and compounds 1, 2, 3 and MPL with concentrations 1, 10 and 100 μg/ml and adjuvant CpG-ODN with concentrations 2, 20 and 200 μg/ml to achieve equal molarities. Medium alone served as an unstimulated control. All incubations were performed at +37° C. in humidified atmosphere with 5% CO2. Supernatants from cultures performed in duplicate were collected 72 h after beginning of the stimulation and stored at −70° C.
The cytokines IL-4 and TNF in supernatants were measured with highsensitivity human cytokine Lincoplex kits (LINCO Research, St. Charles, Mo., USA). The assays were performed in accordance with the manufacturer's protocol by employing Luminex technology.
(§2) Wilcoxon's Signed Rank test was used to test statistical significance in PBMC experiments. Single mice groups were compared by the nonparametric Mann-Whitney U-test using GraphPad Prism software (v.5, GraphPad Software Inc., La Jolla, Calif., USA). Data are expressed as mean±SEM and P-values of <0.05 are considered statistically significant.

[2] = system: production of pro-inflammatory cytokine TNF in PBMC; assay: TNF production in PBMC cultures stimulated with Bet v; format: cell-based, human; details: 100 μg/ml (also printed 100 l/ml), Bet v 50 μg/ml, 72 h
Source text: as §1
Peripheral blood mononuclear cells (PBMC) were isolated by Ficoll-Paque density gradient centrifugation (Ficoll-Paque PLUS, GE Healthcare BioSciences AB, Uppsala, Sweden) from heparinized blood samples from study subjects during pollen season. […]
The cytokines IL-4 and TNF in supernatants were measured with highsensitivity human cytokine Lincoplex kits (LINCO Research, St. Charles, Mo., USA). […]
Wilcoxon's Signed Rank test was used to test statistical significance in PBMC experiments. […] Data are expressed as mean±SEM and P-values of <0.05 are considered statistically significant.

[3] = system: B16 melanoma cells; assay: In vivo model of cancer immunotherapy: B16 melanoma tumor growth in mice; parameters: species or system C57BL/6 mice
Experimental: as §2
3*10^6 B16 melanoma cells in 100 μl PBS were injected s.c. into the right flank of seven-week-old female C57BL/6 mice. Compound 3 was given i.p. 50 μg/injection in 200 μl PBS five times at 3-day intervals, starting on day 0. Each treatment group contained 10 mice. Tumor volumes were calculated using the formula 0.5*length*width^2. Animals were sacrificed when tumor volumes reached 800 mm^3. Animal experimentations were made following the procedures accepted by Eteli-Suomen Aluehallintavirasto (permission ESAVI/480/Apr. 10.2007/2016).

[4] = 10 μg/ml adjuvant, PBMC of 14 birch allergic patients
[5] = 100 g/ml or 100 l/ml as printed (highest concentration, b131: 100 μg/ml), PBMC

Structure (SMILES): CC(=O)OCC1O[C@H](OCCn2cc(COCC(COCc3cn(CCO[C@H]4OC(COC(C)=O)[C@@H](OC(C)=O)[C@H](OC(C)=O)C4O[C@@H]4OC(COC(C)=O)[C@@H](OC(C)=O)[C@H](OC(C)=O)C4OC(C)=O)nn3)OCc3cn(CCO[C@H]4OC(COC(C)=O)[C@@H](OC(C)=O)[C@H](OC(C)=O)C4O[C@@H]4OC(COC(C)=O)[C@@H](OC(C)=O)[C@H](OC(C)=O)C4OC(C)=O)nn3)nn2)C(O[C@@H]2OC(COC(C)=O)[C@@H](OC(C)=O)[C@H](OC(C)=O)C2OC(C)=O)[C@@H](OC(C)=O)[C@@H]1OC(C)=O (stereo partly drawn) [compound 1, 1,2,3-tris[1-(3-{0-(2,3,4,6-tetra-O-acetyl-β-D-mannopyranosyl)-(1→2)-3,4,6-tri-O-acetyl-α-D-mannopyranosyloxy}ethyl)-4-methyloxy-1,2,3-triazolyl]propane]
- in vitro activity (PBMC model) [1]: promising in vitro activities

Structure (SMILES): CC(=O)OC[C@H]1O[C@@H](O[C@@H]2[C@@H](OCCCn3cc(COCC(COCc4cn(CCCO[C@H]5O[C@H](COC(C)=O)[C@@H](OC(C)=O)[C@H](OC(C)=O)[C@@H]5O[C@@H]5O[C@H](COC(C)=O)[C@@H](OC(C)=O)[C@H](OC(C)=O)[C@@H]5OC(C)=O)nn4)OCc4cn(CCCO[C@H]5O[C@H](COC(C)=O)[C@@H](OC(C)=O)[C@H](OC(C)=O)[C@@H]5O[C@@H]5O[C@H](COC(C)=O)[C@@H](OC(C)=O)[C@H](OC(C)=O)[C@@H]5OC(C)=O)nn4)nn3)O[C@H](COC(C)=O)[C@@H](OC(C)=O)[C@@H]2OC(C)=O)[C@@H](OC(C)=O)[C@@H](OC(C)=O)[C@@H]1OC(C)=O (stereo partly drawn) [compound 2, 1,2,3-tris[1-(3-{O-(2,3,4,6-tetra-O-acetyl-β-D-mannopyranosyl)-(1-+2)-3,4,6-tri-O-acetyl-α-D-mannopyranosyloxy}propyl)-4-methyloxy-1,2,3-triazolyl]propane]
- suppression of birch-induced production of IL-4 [1, 4]: significant suppression
- suppression of birch-induced production of IL-4 [1, 5]: significant suppression
- in vitro activity (PBMC model) [1]: promising in vitro activities
- production of pro-inflammatory cytokine TNF [2]: Significantly increased production

Structure (SMILES): CC(=O)OCC1O[C@@H](OC2C(OC(C)=O)[C@H](OC(C)=O)C(COC(C)=O)O[C@@H]2OCCOCCOCCn2cc(COCC(COCc3cn(CCOCCOCCO[C@H]4OC(COC(C)=O)[C@@H](OC(C)=O)C(OC(C)=O)C4O[C@@H]4OC(COC(C)=O)[C@@H](OC(C)=O)C(OC(C)=O)C4OC(C)=O)nn3)OCc3cn(CCOCCOCCO[C@H]4OC(COC(C)=O)[C@@H](OC(C)=O)C(OC(C)=O)C4O[C@@H]4OC(COC(C)=O)[C@@H](OC(C)=O)C(OC(C)=O)C4OC(C)=O)nn3)nn2)C(OC(C)=O)C(OC(C)=O)[C@@H]1OC(C)=O (stereo partly drawn) [compound 3, 1,2,3-tris(1-{2-[2-(2-[O-(2,3,4,6-tetra-O-acetyl-β-D-mannopyranosyl)-(1→2)-3,4,6-tri-O-acetyl-α-D-mannopyranosyloxy]ethoxy)-ethoxy]ethyl}-4-methyloxy-1,2,3-triazolyl)propane]
- tumor volume as compared to control mice ([3]; Day 9, i.p. 50 μg/injection five times at 3-day intervals): statistically significantly smaller
- start of tumor growth as compared to control ([3]; i.p. 50 μg/injection five times at 3-day intervals, starting on day 0): started later
- tumor growth until Day 9 as compared to control ([3]; i.p. 50 μg/injection five times at 3-day intervals, until Day 9): slower
- suppression of birch-induced production of IL-4 [1, 4]: significant suppression
- suppression of birch-induced production of IL-4 [1, 5]: significant suppression
- in vitro activity (PBMC model) [1]: promising in vitro activities
- production of pro-inflammatory cytokine TNF [2]: Significantly increased production
